# Measured values taken from US20140090094A1, “MODULATORS OF SLC22A7” (BAYER INTELLECTUAL PROPERTY GmbH, priority 2011, published 2014).
# What was measured:
# OAT2r [1] = target: T1, OAT2r (Rattus norvegicus, UniProt Q5RLM2); test: trans-stimulation of efflux of 3H-orotic acid via OAT2r; type: cell-based; conditions: for trans-stimulation of efflux of 3H-orotic acid (in words): 1 mmol/l compound in uptake buffer, 1 min, preloaded cells
# T1 construct: expressed in transfected cells
# T1 sequence (Q5RLM2 1-535): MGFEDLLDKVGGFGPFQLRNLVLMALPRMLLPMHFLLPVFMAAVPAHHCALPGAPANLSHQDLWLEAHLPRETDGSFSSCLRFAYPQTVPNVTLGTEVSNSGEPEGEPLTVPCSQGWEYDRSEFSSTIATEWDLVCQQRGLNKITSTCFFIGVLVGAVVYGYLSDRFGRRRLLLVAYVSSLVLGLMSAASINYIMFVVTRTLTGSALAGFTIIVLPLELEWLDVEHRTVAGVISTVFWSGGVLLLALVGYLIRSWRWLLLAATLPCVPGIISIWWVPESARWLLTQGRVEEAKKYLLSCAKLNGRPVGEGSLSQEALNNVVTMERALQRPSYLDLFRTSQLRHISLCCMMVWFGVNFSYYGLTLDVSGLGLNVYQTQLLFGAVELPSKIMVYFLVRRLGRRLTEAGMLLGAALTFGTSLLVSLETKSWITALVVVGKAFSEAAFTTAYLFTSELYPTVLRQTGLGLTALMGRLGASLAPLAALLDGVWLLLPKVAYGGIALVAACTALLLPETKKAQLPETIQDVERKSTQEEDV
# 293 cells = test: uptake into uninduced control 293 cells (expression off); type: cell-based, human; conditions: for clearance kin: 10 μmol/l unlabeled substrate
# Procedure: Time course of trigonelline uptake. Cells grown in dishes were incubated at 37° C. with 10 μmol/l unlabeled trigonelline in uptake buffer for the indicated periods, washed, and lysed. The function for non-linear regression was y=y0+kin/kout*cout*(1−exp(−kout*x)); parameter y0 allows for trigonelline accumulation from the culture medium.
# 293 cells (ATCC CRL-1573; also known as HEK-293 cells), a transformed cell line derived from human embryonic kidney, were grown at 37° C. in a humidified atmosphere (5% CO2) in plastic culture flasks (Falcon 3112, Becton Dickinson, Heidelberg, Germany). The growth medium was Dulbecco's Modified Eagle Medium (Life Technologies 31885-023, Invitrogen, Karlsruhe, Germany) supplemented with 10% fetal calf serum (PAA Laboratories, Cölbe, Germany). Medium was changed every 2-3 days and the culture was split every 5 days. Stably transfected cell lines were generated as reported previously (Bach M et al. FEBS Journal 2007; 274:783-790.). As there is no integration of vector pEBTetD into the genome, clonal isolation of transfected cells is not necessary; we thus use cell pools rather than single cell clones. Cell culture medium always contained 3 μg/ml puromycin (PAA Laboratories) to ascertain plasmid maintenance. To turn on protein expression, cells were cultivated for at least 20 h in regular growth medium supplemented with 1 μg/ml doxycycline (195044, MP Biomedicals, Eschwege, Germany).
# For measurement of solute uptake, cells were grown in surface culture on 60 mm polystyrol dishes (Nunclon 150288, Nunc, Roskilde, Denmark) precoated with 0.1 g/l poly-L-ornithine in 0.15 M boric acid-NaOH, pH 8.4. Cells were used for uptake experiments at a confluence of at least 70%. Uptake was measured at 37° C. Uptake buffer contains 125 mmol/l NaCl, 25 mmol/l HEPES-NaOH pH 7.4, 5.6 mmol/l (+)glucose, 4.8 mmol/l KCl, 1.2 mmol/l KH2PO4, 1.2 mmol/l CaCl2, and 1.2 mmol/l MgSO4. In glutamate efflux experiments, uptake buffer without KH2PO4 was used to avoid MS interference. After preincubation for at least 20 minutes in 4 ml of uptake buffer, the buffer was replaced with 2 ml of substrate in uptake buffer. The total substrate concentration if not indicated otherwise was 0.1 μmol/l for radiotracer assays and 10 μmol/l for unlabeled compounds. Incubation was stopped after 1 min by rinsing the cells four times each with 4 ml ice-cold uptake buffer. Radioactivity was determined, after cell lysis with 0.1% v/v Triton X-100 in 5 mmol/l TRIS-HCl pH 7.4, by liquid scintillation counting. For LCelectrospray ionization-MS/MS analysis, cells were lysed with methanol and stored at −20° C.
# After centrifugation (1 min, 16000×g, 20° C.) of thawed lysates, 100 μl of the supernatant was mixed with either 10 μl unlabeled MPP+ iodide (0.5 ng/μl) or biphenyl-4-carboxylic acid (Sigma-Aldrich) as internal standard. Of this mixture, […] were analyzed by LCMS/MS on a triple quadrupole mass spectrometer (4000 Q TRAP, Applied Biosystems, Darmstadt, Germany). […] Atmospheric pressure ionization with positive or negative electrospray was used. For quantification (scan time 150 ms), the optimal collision energy for argon-induced fragmentation in the second quadrupole was determined for each analyte. […] Linear calibration curves were constructed from at least six standards which were prepared using control cell lysates as solvent. Sample analyte content was calculated from the analyte response ratio and the slope of the calibration curve, obtained by linear regression. With LC-MS quantitation, solute content of cell lysates was determined for 4 conditions (paired dishes, incubation time 1 min): a) transporter expression on, uptake buffer; b) expression off, uptake buffer; c) expression on, substrate in uptake buffer; d) expression off, substrate in uptake buffer. Acute uptake mediated by heterologously expressed carrier was then calculated as (c−a)−(d−b). This approach takes into account endogenous solute content and non-specific uptake.
# OAT2r [2] = target: T1, OAT2r; test: time course of uptake into OAT2r-expressing 293 cells; type: cell-based; conditions: for clearance kin: 10 μmol/l unlabeled substrate, 37° C., OAT2r-expressing cells; for factor by which expression of OAT2r increased the clearance: kin on versus off
# [3] = time course, uninduced control cells
SMILES,trans-stimulation of efflux of 3H-orotic acid (in words) (OAT2r [1]),"cell content directly after washing (OAT2r [1]; 1 h, 37° C. preloading with 100 μmol/l 3H-orotic acid, OAT2r-expressing cells, n=4) [nmol/mg protein]","intracellular content (293 cells; 10 μmol/l unlabeled orotic acid, after 60 min, cells lacking the transporter) [nmol/mg protein]","cell content directly after washing (293 cells; 1 h, 37° C. preloading with 100 μmol/l 3H-orotic acid, uninduced control cells, n=4) [nmol/mg protein]","non-specific uptake into control cells, slope (293 cells; saturation experiment, 1 min, expression off) [μl min-1 mg protein-1]",clearance kin (293 cells; [3]) [μl min-1 mg protein-1],"kout (293 cells; time course, unlabeled orotic acid, expression off) [min⁻¹]","intracellular plateau (OAT2r [2]; 10 μmol/l unlabeled orotic acid, after 60 min, LC-MS/MS) [nmol/mg protein]",intracellular concentration corresponding to plateau (OAT2r [2]; calculated with an intracellular water space of 6.7 μl/mg protein) [µmol/L],clearance kin (OAT2r [2]; time course) [μl min-1 mg protein-1],factor by which expression of OAT2r increased the clearance (OAT2r [2]; time course),"kout (OAT2r [2]; time course, unlabeled orotic acid, expression on) [min⁻¹]"
N[C@@H](CCC(=O)O)C(=O)O [glutamate],accelerated efflux,–,–,–,–,–,–,–,–,–,–,–
O=C(O)c1cc(=O)[nH]c(=O)[nH]1 [orotic acid],markedly accelerated efflux,56±3,0.05,3.5±0.1,0.56,0.58±0.12,0.12 ± 0.03,5.8,870,50.1±6.4,86,0.09 ± 0.01
C[n+]1cccc(C(=O)[O-])c1 [trigonelline],–,–,–,–,–,0.11±0.01,–,–,–,5.1±1.4,~50,–
